Measured values taken from BindingDB's records for PubMed 36473699 (Cnrs, 2022).

experiment: Inhibition of Mycobacterium smegmatis MC2 155 recombinant type II NADH dehydrogenase ndh expressed in Escherichia coli assessed as rate of NADH oxidation in the presence of an electron acceptor menadione

Row | Structure (SMILES) | IC50 [nM]
1 | COc1ccc(CN2CC[C@]34OC[C@H](C(C)C)N3C(=O)CC[C@@H]4C2)cc1 | 890
2 | CC(C)[C@H]1CO[C@]23CCN(Cc4ccc(Cl)cc4)C[C@H]2CCC(=O)N13 | 42
3 | CC(C)[C@H]1CO[C@]23CCN(Cc4ccc(C(F)(F)F)nc4)C[C@H]2CCC(=O)N13 | 88
